Our source for the IC50 values is patent publication US11440913B2, “Aminoimidazopyridazines as kinase inhibitors” (BRISTOL-MYERS SQUIBB COMPANY, priority 2017, dated 2022).

Like-named read-outs stand apart in the source and are kept apart here.

Test [1] concerns the target His-GST-TVMV-hRIPK1(1-324) (Homo sapiens (Human), UniProt Q13546). As to the kind of experiment: RIPK1 HTRF Binding Assay. To be noted: HTRF binding, 1 h at rt; read-out: RIPK1 (IC50). The method, boiled down: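 HTRF probe-displacement binding: 1 nM His-GST-TVMV-hRIPK1(1-324) (baculovirus construct), 90.6 nM probe, 0.2 nM anti-GST-Tb in 20 mM HEPES, 10 mM MgCl2, 0.015% Brij-35, 4 mM DTT, 0.05 mg/mL BSA. Incubated 1 h at rt; FRET 520/495 nm ratio, inhibition relative to DMSO-only wells.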

The test system of test [2] is MLKL phosphorylation in HT29-L23 human colorectal adenocarcinoma cells. As to the kind of experiment: MLKL Phosphorylation High-Content Assay. It is filed as cell-based. As to conditions: 6 h, necroptosis induced with TNFα, SMAC mimetic and Z-VAD, read-out: pMLKL (IC50). An outline of the steps: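 HT29-L23 cells pretreated 30 min at 37 °C with compound (6.25 to 0.106 μM final), then necroptosis induced with TNFα 35 ng/mL, SMAC mimetic 700 nM and Z-VAD 140 nM for 6 h. Fixed cells immunostained for MLKL pS358 and imaged; IC50 and Ymax from 4-parameter logistic fit.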

Sequence of His-GST-TVMV-hRIPK1(1-324) (Q13546 1-324): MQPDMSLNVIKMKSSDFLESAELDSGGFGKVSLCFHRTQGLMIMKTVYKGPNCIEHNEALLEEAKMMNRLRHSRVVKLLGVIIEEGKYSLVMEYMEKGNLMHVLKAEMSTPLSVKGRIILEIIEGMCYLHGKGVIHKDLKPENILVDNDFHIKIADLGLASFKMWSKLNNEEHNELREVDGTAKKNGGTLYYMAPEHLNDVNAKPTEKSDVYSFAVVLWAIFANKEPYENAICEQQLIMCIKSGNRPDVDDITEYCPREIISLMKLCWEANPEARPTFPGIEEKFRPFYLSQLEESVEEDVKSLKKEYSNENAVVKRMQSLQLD

As a reminder, the IC50 is the midpoint of a concentration-inhibition curve. As to `CC(=O)Nc1cn2nc(-c3cc(C(=O)NCc4cc(C(F)(F)F)ccc4F)c(C)nc3C)ccc2n1` [Example 80, 5-{2-acetamidoimidazo[1,2-b]pyridazin-6-yl}-N-{[2-fluoro-5-(trifluoromethyl)phenyl]methyl}-2,6-dimethylpyridine-3-carboxamide], the values for the IC50 in test [1] and in test [2] (Homo sapiens) were 14 nM and 15 nM, respectively.
The matching figures for `CC(=O)Nc1cn2nc(-c3cc(C(=O)NCc4cc(F)cc(F)c4OC4CCOC(C)C4)c(C)nc3C)ccc2n1` (stereo not drawn) [Example 62, N-({3,5-difluoro-2-[(2-methyloxan-4-yl)oxy]phenyl}methyl)-5-{2-acetamidoimidazo[1,2-b]pyridazin-6-yl}-2,6-dimethylpyridine-3-carboxamide]: 11 nM and 29 nM.
For `Cc1ncc(-c2ccc3nc(NC(=O)C(C)(C)C#N)cn3n2)cc1C(=O)N[C@H](C)c1cc(OC(F)(F)F)ccc1F` [Example 27, 5-[2-(2-cyano-2,2-dimethylacetamido)imidazo[1,2-b]pyridazin-6-yl]-N-[(1R)-1-[2-fluoro-5-(trifluoromethoxy)phenyl]ethyl]-2-methylpyridine-3-carboxamide] the same measures were 109 nM and 108 nM.
The matching figures for `CC(=O)Nc1cn2nc(-c3cc(C(=O)NCc4cc(F)cc(F)c4OCC4CCCC4)c(C)nc3C)ccc2n1` [Example 90, N-{[2-(cyclopentylmethoxy)-3,5-difluorophenyl]methyl}-5-{2-acetamidoimidazo[1,2-b]pyridazin-6-yl}-2,6-dimethylpyridine-3-carboxamide]: 5 nM and 3 nM.
As to `[2H]C([2H])([2H])Oc1nc(C)c(-c2ccc3nc(NC(C)=O)cn3n2)cc1C(=O)NCc1ccccc1OC(F)(F)F` [Example 178, 5-{2-acetamidoimidazo[1,2-b]pyridazin-6-yl}-2-(deutero) methoxy-6-methyl-N-{[2-(trifluoromethoxy)phenyl]methyl} pyridine-3-carboxamide], the IC50 in test [1] is 4 nM; in test [2] (Homo sapiens), 20 nM.
Regarding `Cc1ncc(-c2ccc3nc(NC(=O)CO)cn3n2)cc1C(=O)N[C@H](C)c1cc(OC(F)(F)F)ccc1F` [Example 185, N-[(1R)-1-[2-fluoro-5-(trifluoromethoxy)phenyl]ethyl]-5-[2-(2-hydroxyacetamido)imidazo [1,2-b]pyridazin-6-yl]-2-methylpyridine-3-carboxamide], the results for the IC50 in test [1] and in test [2] (Homo sapiens) were 30 nM and 81 nM, respectively.
As for `COc1ncc(-c2ccc3nc(NC(C)=O)cn3n2)cc1C(=O)NC(C)c1cc(F)cc(F)c1OCC1CC1` (stereo not drawn) [Example 133, N-{1-[2-(cyclopropylmethoxy)-3,5-difluorophenyl]ethyl}-5-{2-acetamidoimidazo[1,2-b]pyridazin-6-yl}-2-methoxypyridine-3-carboxamide], the results for the IC50 in test [1] and in test [2] were 23 nM and 8 nM, respectively.
In the case of `COc1ncc(-c2ccc3nc(NC(=O)CO)cn3n2)cc1C(=O)NCc1cc(OC(F)(F)F)ccc1F` [Example 35, N-{[2-fluoro-5-(trifluoromethoxy)phenyl]methyl}-5-[2-(2-hydroxyacetamido)imidazo[1,2-b]pyridazin-6-yl]-2-methoxypyridine-3-carboxamide], the half-inhibitory concentration (IC50) came to 25 nM in test [1] and 130 nM in test [2] (Homo sapiens).
On to `CC(=O)Nc1cn2nc(-c3cccc(C(=O)NCc4cc(OC(F)(F)F)ccc4F)c3F)ccc2n1` [Example 424, 3-{2-acetamidoimidazo [1,2-b]pyridazin-6-yl}-2-fluoro-N-{[2-fluoro-5-(trifluoromethoxy)phenyl]methyl} benzamide], for which the IC50 in test [1] is 2 nM; in test [2] (Homo sapiens), 3 nM.
For `CC(=O)Nc1cn2nc(-c3cnc(C)c(C(=O)NCc4cccc(OCC(F)(F)F)c4)c3)ccc2n1` [Example 194, 5-{2-acetamidoimidazo[1,2-b]pyridazin-6-yl}-2-methyl-N-{[3-(2,2,2-trifluoroethoxy)phenyl]methyl}pyridine-3-carboxamide] the same measures were 100 nM and 141 nM.
The matching figures for `COc1ncc(-c2ccc3nc(NC(=O)C(C)(C)O)cn3n2)cc1C(=O)NCc1cccc(F)c1OCC1CC1` [Example 15, N-{[2-(cyclopropylmethoxy)-3-fluorophenyl]methyl}-5-[2-(2-hydroxy-2-methylpropanamido)imidazo[1,2-b]pyridazin-6-yl]-2-methoxypyridine-3-carboxamide]: 83 nM and 198 nM.
For `CC(=O)Nc1cn2nc(-c3cnc(C)c(C(=O)NCc4c(F)cccc4OCC4CC4)c3)ccc2n1` [Example 226, N-{[2-(cyclopropylmethoxy)-6-fluorophenyl]methyl}-5-{2-acetamidoimidazo[1,2-b]pyridazin-6-yl}-2-methylpyridine-3-carboxamide] the same measures were 6 nM and 3 nM.
For `Cc1nc(C)c(-c2ccc3nc(NC(=O)CO)cn3n2)cc1C(=O)NCc1cc(C(F)(F)F)ccc1F` [Example 94, N-{[2-fluoro-5-(trifluoromethyl)phenyl]methyl}-5-[2-(2-hydroxyacet-amido)imidazo[1,2-b]pyridazin-6-yl]-2,6-dimethylpyridine-3-carboxamide], the IC50 was found to be 77 nM in test [1] and 87 nM in test [2] (Homo sapiens).
The matching figures for `CC(=O)Nc1cn2nc(-c3ccc(C)c(C(=O)NCc4cc(OC(F)(F)F)ccc4F)c3)ccc2n1` [Example 394, 5-{2-acetamidoimidazo [1,2-b]pyridazin-6-yl}-N-{[2-fluoro-5-(trifluoromethoxy)phenyl]methyl}-2-methylbenzamide]: 3 nM and 3 nM.
In the case of `CC(=O)Nc1cn2nc(-c3cnc(Cl)c(C(=O)NC(C)c4ccccc4OC(F)(F)F)c3)ccc2n1` (stereo not drawn) [Example 271, 2-chloro-5-{2-acetamidoimidazo[1,2-b]pyridazin-6-yl}-N-{1-[2-(trifluoromethoxy)phenyl]ethyl}pyridine-3-carboxamide], the results for the IC50 in test [1] and in test [2] were 49 nM and 129 nM, respectively.
Consider `CC(=O)Nc1cn2nc(-c3cnc(C)c(C(=O)NCc4ccccc4OC(C)C)c3)ccc2n1` [Example 20, 5-{2-acetamidoimidazo[1,2-b]pyridazin-6-yl}-2-methyl-N-{[2-(propan-2-yloxy)phenyl]methyl}pyridine-3-carboxamide], for which the IC50 in test [1] worked out at 46 nM; in test [2] (Homo sapiens), 63 nM.
Take `CC(=O)Nc1cn2nc(-c3cncc(C(=O)NCCC(C)c4ccccc4)c3)ccc2n1` (stereo not drawn) [Example 238, 5-{2-acetamidoimidazo[1,2-b]pyridazin-6-yl}-N-(3-phenylbutyl) pyridine-3-carboxamide]: the IC50 amounted to 41 nM in test [1] and 356 nM in test [2] (Homo sapiens).
For `COc1ncc(-c2ccc3nc(NC(C)=O)cn3n2)cc1C(=O)NCc1cc(F)ccc1OCC(F)(F)F` [Example 105, 5-{2-acetamidoimidazo[1,2-b]pyridazin-6-yl}-N-{[5-fluoro-2-(2,2,2-trifluoroethoxy)phenyl]methyl}-2-methoxypyridine-3-carboxamide], the IC50 in test [1] worked out at 5 nM; in test [2] (Homo sapiens) it was 17 nM.
The matching figures for `CC(=O)Nc1cn2nc(-c3cnc(C)c(C(=O)NCc4cc(F)cc(F)c4OC4CCOCC4)c3)ccc2n1` [Example 201, N-{[3,5-difluoro-2-(oxan-4-yloxy)phenyl]methyl}-5-{2-acetamidoimidazo[1,2-b]pyridazin-6-yl}-2-methylpyridine-3-carboxamide]: 6 nM and 10 nM.
For `CC(=O)Nc1cn2nc(-c3cnc(C)c(C(=O)Nc4cnn(C(C)c5ccc(F)cc5)c4)c3)ccc2n1` (stereo not drawn) [Example 348, 5-{2-acetamidoimidazo[1,2-b]pyridazin-6-yl}-N-{1-[1-(4-fluorophenyl)ethyl]-1H-pyrazol-4-yl}-2-methylpyridine-3-carboxamide] the same measures were 2 nM and 27 nM.
The matching figures for `[2H]C([2H])(NC(=O)c1cc(-c2ccc3nc(NC(C)=O)cn3n2)cnc1C)c1cc(OC(F)(F)F)ccc1F` [Example 208, 5-{2-acetamidoimidazo[1,2-b]pyridazin-6-yl}-N-{[2-fluoro-5-(trifluoromethoxy)phenyl] (deutero)methyl}-2-methylpyridine-3-carboxamide]: 5 nM and 5 nM.
For `COc1ncc(-c2ccc3nc(NC(C)=O)cn3n2)cc1C(=O)NCc1ccccc1OCC(F)(F)F` [Example 108, 5-{2-acetamidoimidazo[1,2-b]pyridazin-6-yl}-2-methoxy-N-{[2-(2,2,2-trifluoroethoxy)phenyl]meth-yl}pyridine-3-carboxamide], the IC50 worked out at 4 nM in test [1] and 28 nM in test [2] (Homo sapiens).
Regarding `CC(=O)Nc1cn2nc(-c3ccc(C)c(C(=O)NCc4cc(F)cc(F)c4C(=O)N4CC[C@H](O)C4)c3)ccc2n1` [Example 407, N-({3,5-difluoro-2-[(3S)-3-hydroxypyrrolidine-1-carbonyl]phenyl}methyl)-5-{2-acetamidoimidazo [1,2-b]pyridazin-6-yl}-2-methylbenzamide], the IC50 came to 37 nM in test [1] and 388 nM in test [2] (Homo sapiens).
Turning to `[2H]C([2H])([2H])Oc1nc(C)c(-c2ccc3nc(NC(C)=O)cn3n2)cc1C(=O)NCc1cc(F)cc(F)c1OC1CCOC(C)C1` (stereo not drawn) [Example 172, N-({3,5-difluoro-2-[(2-methyloxan-4-yl)oxy]phenyl}methyl)-5-{2-acetamidoimidazo[1,2-b]pyridazin-6-yl}-2-(deutero)methoxy-6-methylpyridine-3-carboxamide], the IC50 in test [1] is 15 nM; in test [2] (Homo sapiens) it was 16 nM.
